Results as given in US6914045B2, “Glycopeptide antibiotics” (Wyeth Holdings Corporation, priority 2001, dated 2005).
≈ marks a conversion by molar mass, not a printed value.

Columns and labels:
[1] = clinical pathology (serum clinical chemistry) in mice; assay type: in vivo; conditions: CD-1 mice, 20 mg/kg intravenously daily for 9 days, sera day 10
Procedure: 20-day-old CD-1 mice were divided into a vehicle control group (5 mice) and a treatment group (5 mice). Samples of glycopeptide antibiotics were administered at 20 mg/kg intravenously daily for 9 days.

Enterococcus sp. = test: in vitro antibacterial evaluation, MIC by broth dilution; assay type: cell-based; conditions: broth dilution, 18 hours at 35° C.
In short: (§1)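 Following National Committee for Clinical Laboratory Standards recommendations (M7-A2), susceptibility was measured by dilution in Muller-Hinton II […]. Bacteria were seeded at 5×10^5 CFU/mL against compound concentrations from 64 down to 0.06 μg/mL.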

Streptococcus sp. = test: as above; assay type: cell-based; conditions: broth dilution, 18 hours at 35° C.
In short: as §1

Escherichia coli = test: as above; assay type: cell-based; conditions: 18 hours at 35° C.
In short: as §1

Staphylococcus sp. = test: as above; assay type: cell-based; conditions: broth dilution, 18 hours at 35° C.
In short: as §1

[2] = anatomic pathology (histopathology of heart and kidney) in mice; assay type: in vivo; conditions: CD-1 mice, 20 mg/kg intravenously daily for 9 days, necropsy day 10, microscopic histopathology
Procedure: Samples of tissues from necropsied mice were formalin-fixed, paraffin-embedded, sectioned, stained with hematoxylin and eosin, and examined microscopically. Histopathologic findings were recorded. These findings were subjectively graded on a scale corresponding to slight, mild, moderate, marked and severe as compared to untreated controls.

Compound: CC(c1ccccc1)C1NC(=O)CNC(=O)C(CO)NC(=O)C(C(O)C2CNC(=N)N2C2OC(CO)C(O)C(O)C2O)NC(=O)C(C(O)C2CNC(=N)N2)NC(=O)C(Cc2ccc(OC3OC(CO)C(OC4OC5COC(Cc6ccccc6)OC5C(O)C4O)C(O)C3O)cc2)NC1=O (stereo not drawn) [Example 102, Cyclo[glycyl-β-methylphenylalanyl-O-[4-O-(4,6-O-phenethylidenehexopyranosyl)-hexopyranosyl]tyrosyl-3-(2-iminoimidazolidin-4-yl)seryl-3-(3-hexopranosyl-2-iminoimidazolidin-4-yl)serylseryl]]
- Clinical Chemistry (Day 10) % of Control, ALT [1]: +672%
- Clinical Chemistry (Day 10) % of Control, AST [1]: +340%
- Clinical Chemistry (Day 10) % of Control, BUN [1]: +249%
- Clinical Chemistry (Day 10) % of Control, Creatinine [1]: +100%
- MIC Enterococcus avium (GC 4558) (Enterococcus sp.; Enterococcus avium (GC 4558)): 2 to 4 µg/mL
- MIC Enterococcus faecalis (ATCC 29212) (Enterococcus sp.; Enterococcus faecalis (ATCC 29212)): 2 to 4 µg/mL
- MIC Enterococcus faecalis (GC 2242) (Enterococcus sp.; Enterococcus faecalis (GC 2242)): 2 to 4 µg/mL
- MIC Enterococcus faecalis (GC 2691) (Enterococcus sp.; Enterococcus faecalis (GC 2691)): 2 to 4 µg/mL
- MIC Enterococcus faecalis (GC 3059) (Enterococcus sp.; Enterococcus faecalis (GC 3059)): 2 to 4 µg/mL
- MIC Enterococcus faecalis (GC 4552) (Enterococcus sp.; Enterococcus faecalis (GC 4552)): 2 to 4 µg/mL
- MIC Enterococcus faecalis (GC 4553) (Enterococcus sp.; Enterococcus faecalis (GC 4553)): 2 to 4 µg/mL
- MIC Enterococcus faecalis (GC 4554) (Enterococcus sp.; Enterococcus faecalis (GC 4554)): 2 to 4 µg/mL
- MIC Enterococcus faecalis (GC 6189) (Enterococcus sp.; Enterococcus faecalis (GC 6189)): 2 to 4 µg/mL
- MIC Enterococcus faecium (GC 2243) (Enterococcus sp.; Enterococcus faecium (GC 2243)): 2 to 4 µg/mL
- MIC Enterococcus faecium (GC 4556) (Enterococcus sp.; Enterococcus faecium (GC 4556)): 2 to 4 µg/mL
- MIC Enterococcus faecium (GC 4557) (Enterococcus sp.; Enterococcus faecium (GC 4557)): 1 to 2 µg/mL
- MIC Enterococcus faecalis (ATCC 29212) (Enterococcus sp.; strain ATCC 29212): 2 to 4 µg/mL
- MIC Enterococcus faecalis (GC 2242) (Enterococcus sp.; strain GC 2242): 2 to 4 µg/mL
- MIC Enterococcus faecium (GC 2243) (Enterococcus sp.; strain GC 2243): 2 to 4 µg/mL
- MIC Enterococcus faecalis (GC 2691) (Enterococcus sp.; strain GC 2691): 2 to 4 µg/mL
- MIC Enterococcus faecalis (GC 3059) (Enterococcus sp.; strain GC 3059): 2 to 4 µg/mL
- MIC Enterococcus faecalis (GC 4552) (Enterococcus sp.; strain GC 4552): 2 to 4 µg/mL
- MIC Enterococcus faecalis (GC 4553) (Enterococcus sp.; strain GC 4553): 2 to 4 µg/mL
- MIC Enterococcus faecalis (GC 4554) (Enterococcus sp.; strain GC 4554): 2 to 4 µg/mL
- MIC Enterococcus faecium (GC 4556) (Enterococcus sp.; strain GC 4556): 2 to 4 µg/mL
- MIC Enterococcus faecium (GC 4557) (Enterococcus sp.; strain GC 4557): 1 to 2 µg/mL
- MIC Enterococcus avium (GC 4558) (Enterococcus sp.; strain GC 4558): 2 to 4 µg/mL
- MIC Enterococcus faecalis (GC 6189) (Enterococcus sp.; strain GC 6189): 2 to 4 µg/mL
- MIC Streptococcus agalactiae (GC 4564) (Streptococcus sp.; Streptococcus agalactiae (GC 4564)): <0.12 to 0.25 µg/mL
- MIC Streptococcus pneumoniae (ATCC 6301) (Streptococcus sp.; Streptococcus pneumoniae (ATCC 6301)): <0.06 µg/mL
- MIC Streptococcus pneumoniae (GC 1894) (Streptococcus sp.; Streptococcus pneumoniae (GC 1894)): <0.06 µg/mL
- MIC Streptococcus pyogenes (GC 4563) (Streptococcus sp.; Streptococcus pyogenes (GC 4563)): <0.12 to 0.25 µg/mL
- MIC Streptococcus pneumoniae (ATCC 6301) (Streptococcus sp.; strain ATCC 6301): <0.06 µg/mL
- MIC Streptococcus pneumoniae (GC 1894) (Streptococcus sp.; strain GC 1894): <0.06 µg/mL
- MIC Streptococcus pyogenes (GC 4563) (Streptococcus sp.; strain GC 4563): <0.12 to 0.25 µg/mL
- MIC Streptococcus agalactiae (GC 4564) (Streptococcus sp.; strain GC 4564): <0.12 to 0.25 µg/mL
- MIC Escherichia coli (ATCC 25922) (Escherichia coli; strain ATCC 25922): 16 to 64 µg/mL
- MIC Escherichia coli (GC 4559) (Escherichia coli; strain GC 4559): 16 to 32 µg/mL
- MIC Escherichia coli (GC 4560) (Escherichia coli; strain GC 4560): 0.5 to 1 µg/mL
- MIC Coagulase Negative Staphylococcus (GC 4547) (Staphylococcus sp.): 1 µg/mL (≈ 0.716 µM)
- MIC Coagulase Negative Staphylococcus (GC 4548) (Staphylococcus sp.): 0.5 to 1 µg/mL
- MIC Coagulase Negative Staphylococcus (GC 4549) (Staphylococcus sp.): 0.5 to 1 µg/mL
- MIC Coagulase Negative Staphylococcus (GC 4551) (Staphylococcus sp.): 1 to 2 µg/mL
- MIC Coagulase Negative Staphylococcus (GC 6257) (Staphylococcus sp.): 0.5 µg/mL (≈ 0.358 µM)
- MIC Staphylococcus aureus (ATCC 29213) (Staphylococcus sp.): 1 to 2 µg/mL
- MIC Staphylococcus aureus (GC 1131) (Staphylococcus sp.): 2 µg/mL (≈ 1.43 µM)
- MIC Staphylococcus aureus (GC 3051) (Staphylococcus sp.): 1 µg/mL (≈ 0.716 µM)
- MIC Staphylococcus aureus (GC 3053) (Staphylococcus sp.): 1 to 2 µg/mL
- MIC Staphylococcus aureus (GC 4541) (Staphylococcus sp.): 1 to 2 µg/mL
- MIC Staphylococcus aureus (GC 4542) (Staphylococcus sp.): 0.5 to 1 µg/mL
- MIC Staphylococcus aureus (GC 4544) (Staphylococcus sp.): 1 to 2 µg/mL
- MIC Staphylococcus aureus (GC 4545) (Staphylococcus sp.): 0.5 to 1 µg/mL
- MIC Staphylococcus aureus-SMITH (GC 4543) (Staphylococcus sp.): 0.5 to 1 µg/mL
- MIC Staphylococcus haemolyticus (GC 4546) (Staphylococcus sp.): 0.5 to 1 µg/mL
- MIC Staphylococcus haemolyticus (GC 4546) (Staphylococcus sp.; strain GC 4546): 0.5 to 1 µg/mL
- MIC Coagulase Negative Staphylococcus (GC 4547) (Staphylococcus sp.; strain GC 4547): 1 µg/mL (≈ 0.716 µM)
- MIC Coagulase Negative Staphylococcus (GC 4548) (Staphylococcus sp.; strain GC 4548): 0.5 to 1 µg/mL
- MIC Coagulase Negative Staphylococcus (GC 4549) (Staphylococcus sp.; strain GC 4549): 0.5 to 1 µg/mL
- MIC Coagulase Negative Staphylococcus (GC 4551) (Staphylococcus sp.; strain GC 4551): 1 to 2 µg/mL
- MIC Coagulase Negative Staphylococcus (GC 6257) (Staphylococcus sp.; strain GC 6257): 0.5 µg/mL (≈ 0.358 µM)
- MIC Staphylococcus aureus-SMITH (GC 4543) (Staphylococcus sp.; strain SMITH GC 4543): 0.5 to 1 µg/mL
- MIC Staphylococcus aureus (ATCC 29213) (Staphylococcus sp.; strain ATCC 29213): 1 to 2 µg/mL
- MIC Staphylococcus aureus (GC 1131) (Staphylococcus sp.; strain GC 1131): 2 µg/mL (≈ 1.43 µM)
- MIC Staphylococcus aureus (GC 3051) (Staphylococcus sp.; strain GC 3051): 1 µg/mL (≈ 0.716 µM)
- MIC Staphylococcus aureus (GC 3053) (Staphylococcus sp.; strain GC 3053): 1 to 2 µg/mL
- MIC Staphylococcus aureus (GC 4541) (Staphylococcus sp.; strain GC 4541): 1 to 2 µg/mL
- MIC Staphylococcus aureus (GC 4542) (Staphylococcus sp.; strain GC 4542): 0.5 to 1 µg/mL
- MIC Staphylococcus aureus (GC 4544) (Staphylococcus sp.; strain GC 4544): 1 to 2 µg/mL
- MIC Staphylococcus aureus (GC 4545) (Staphylococcus sp.; strain GC 4545): 0.5 to 1 µg/mL
- Anatomical Pathology (Day 10), Heart [2]: +++
- Anatomical Pathology (Day 10), Kidney [2]: +++
